Measured values reported in US20170189417A1, “PHARMACEUTICAL COMPOSITION FOR TREATING COLORECTAL CANCER” (MA SHEN KAI RUEI CO., LTD., priority 2015, published 2017).
Entries after “also recorded” stand apart in the source; their conditions may differ.

What was measured:
[1] = test system: human colorectal-cancer cells SW-480; test: MTT ex vivo survival assay, SW-480; format: cell-based; settings: SW-480 cell line; for half-maximal inhibitory concentration (IC50): isolated agents, stated in words only
Protocol: (§1) The Antroquinonol B (AnQB) and Zhankuic acid D (ZhAD) separately isolated from the Extraction A of Example 1 were added into the culture media of human colorectal-cancer cells, HT-29 or SW-480, to test for tumor cell survival by using anti-cancer drug screen model. This survival assay was carried out with the widely known MTT (3-[4,5-dimethylthiazol-2-yl]2,5-diphenyltetrazolium bromide) assay.
(§2) HT-29 cell line (purchased from ATCC) is a human colorectal adenocarcinoma cell line with epithelial morphology. These cells are sensitive to the chemotherapeutic drugs 5-fluorouracil and oxaliplatin, which are standard treatment options for colorectal cancer. In addition to being a xenograft tumor model for colorectal cancer, the HT-29 cell line is also used as an in-vitro model to study survival assay. And the other one, SW-480 is Dukes' type B, colorectal adenocarcinoma which is a difficult tumor with a low survival rate.
(§3) The human colorectal-cancer cells, HT-29 and SW-480 were cultivated in media containing fetal calf serum for 18 hours. The proliferated cells were washed once with PBS, then treated with 1× trypsin-EDTA and centrifuged at 1200 rpm for 45 minutes. The supernatant was discarded and the cell pellet was re-suspended in […] of fresh culture medium by gently shaking. The cells were placed in a 96-well plate.
(§4) Subsequently, the plates were read on an ELISA reader to determine the survival rates. The half maximal inhibitory concentration (IC50) values were calculated and results of ex vivo survival assay were thus obtained.
(§5) By using the same manner as the method described above, respectively human colorectal cancer cell line HT-29 and Sw-480 was cultured. After then, the pharmaceutical compositions A˜F of the present invention was applied separately, and then MTT assay for each sample was measured to assess the inhibition effectiveness of various cancer cell activity while using pharmaceutical compositions A˜F of the present invention.

[2] = test system: human colorectal-cancer cells HT-29; test: MTT ex vivo survival assay, HT-29; format: cell-based; settings: HT-29 cell line; for half-maximal inhibitory concentration (IC50): isolated agents, stated in words only
Protocol: as §1, §2, §3, §4, §5

SMILES	tumor cell survival rate / growth inhibition (MTT assay) [1]	half-maximal inhibitory concentration (IC50) [1]	tumor cell survival rate / growth inhibition (MTT assay) [2]	half-maximal inhibitory concentration (IC50) [2]
COC1=C(OC)[C@H](O)[C@H](C/C=C(\C)CC/C=C(/C)C/C=C/C(C)(C)O)[C@@H](C)C1=O [Antroquinonol B]	can inhibit the growth of colorectal cancer cell; also recorded: can decrease the survival rates	relatively low	can inhibit the growth of colorectal cancer cell; also recorded: can decrease the survival rates	relatively low
C=C(CC[C@@H](C(=O)O)[C@H]1CC[C@@]2(C)C3=CC[C@H]4C(C)(C)[C@@H](O)CC[C@]4(C)C3=CC[C@]12C)C(C)C	can inhibit the growth of colorectal cancer cell; also recorded: can decrease the survival rates	relatively low	can inhibit the growth of colorectal cancer cell; also recorded: can decrease the survival rates	relatively low
